Data set [1] has as its system MCF‐7 breast cancer cells. As to the kind of experiment: Live cell confocal laser microscopy of TMR‐labeled peptides (cell membrane permeability). The note with it: MCF‐7 cells, 3 μM TMR‐labeled peptide.
The next data set concerns the target T1, ERα/LBD (ERα302–552) (Homo sapiens, UniProt P03372).
T1 construct: Recombinant ERα/LBD (ERα^302–552) was prepared as previously reported; made in house; host or cells: Escherichia coli BL21-CodonPlus-RP
T1 sequence (P03372 302-552): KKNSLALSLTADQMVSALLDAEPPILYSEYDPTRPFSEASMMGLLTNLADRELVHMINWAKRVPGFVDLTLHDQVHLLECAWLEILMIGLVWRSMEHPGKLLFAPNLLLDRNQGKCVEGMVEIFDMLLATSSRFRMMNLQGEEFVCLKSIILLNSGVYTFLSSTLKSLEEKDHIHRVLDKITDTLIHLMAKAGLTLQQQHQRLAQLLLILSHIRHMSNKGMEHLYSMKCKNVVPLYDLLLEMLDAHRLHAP
As to the kind of experiment: Fluorescence polarization (FP) direct binding of fluorescently labeled peptides to ERα/LBD. The protocol: The binding activity of cHLH‐ERα was examined by fluorescence polarization (FP) analysis.^[ [26], [29] ^] The cHLH peptides were labeled with tetramethylrhodamine (TMR) to provide the fluorescent cHLH peptide TMR‐cHLH‐ERα, and fluorescent TMR‐YT1‐RS as a negative control (Figure 1, Figure S2, Supporting Information).
1. Protein Expression and Purification
The plasmid encoding the LBD domain of ERα (ERα302-552), was prepared from the plasmid pF1KB7810 (Kazusa DNA Res. Inst. ) encoding the full length of Estrogen Receptor α as described by using pET -28a(+)vector [1]. […]
4. Fluorescence Polarization […]
Tris-HCl (pH 8.0), 25 mM NaCl, 10%(v/v) Glycerol, 1 mM TCEP as described. The concentration of FL-SRC1Box2 labeled with Fluorescein and TMR-cHLH-ERα and YT1-RS were determined from the absorption of Fluorescein or Tetramethylrhodamine. The respective peptide was incubated with ERα-LBD for 30 min in 20 mM Tris-HCl (pH 8.0), 25 mM NaCl with 1 mM 17β-estradiol, and the mixture was transferred into a 384-well microtiter well (Non-binding, Black, greiner bio -one) and the fluorescence polarization was measured on a spectrofluorometer (SpectraMax iD5, Molecular Devices) at 20 °C. The KD values were analyzed via a quadratic binding equation (Fig S5A, S5B) with the data fit to calculate by using KaleidaGraph 4.0 as described elsewhere. […]
For orientation: Fluorescence polarisation rises when a labelled molecule tumbles more slowly, as on binding a larger partner.

Read-outs that look alike come from different tables or passages of the source. Bridge positions count the residues as written; N and C are the ends. Peptide text beside a SMILES is read from it. * marks the point of attachment. X1 = CN(C)c1ccc2c(c1)Oc1cc(N(C)C)ccc1C21OC(=O)c2cc(NC(=O)C*)ccc21

For `CC(C)C[C@@H]1NC(=O)[C@H](C)NC(=O)[C@H](C)NC(=O)[C@H](CC(C)C)NC(=O)[C@H](CCCCN)NC(=O)[C@H](C)NC(=O)[C@H](CCCCN)NC(=O)[C@H](CC(C)C)NC(=O)[C@H](C)NC(=O)[C@H](C)NC(=O)[C@H](CC(C)C)NC(=O)[C@H](CCCCN)NC(=O)CNC(=O)CNC(=O)CNC(=O)CNC(=O)CNC(=O)CNC(=O)CNC(=O)[C@H](CCC(=O)O)NC(=O)[C@H](CC(C)C)NC(=O)[C@H](CCCNC(=N)N)NC(=O)[C@H](CCCNC(=N)N)NC(=O)[C@H](CC(C)C)NC(=O)[C@H](CCC(=O)O)NC(=O)[C@H](CCCNC(=N)N)NC(=O)[C@H](CCC(=O)O)NC(=O)[C@H](CC(C)C)NC(=O)[C@H](CCCNC(=N)N)NC(=O)[C@H](CCCNC(=N)N)NC(=O)[C@H](CC(C)C)NC(=O)[C@H](CCC(=O)O)NC(=O)[C@H](CCCNC(=N)N)NC(=O)[C@H](CSCC(=O)Nc2ccc3c(c2)C(=O)OC32c3ccc(N(C)C)cc3Oc3cc(N(C)C)ccc32)NC(=O)CNC(=O)CSC[C@@H](C(N)=O)NC(=O)[C@H](Cc2ccc(O)cc2)NC(=O)[C@H](C)NC(=O)[C@H](CCCCN)NC1=O` [TMR‐YT1‐RS] ({CH2CO}-GC(X1)RELRRLERELRRLEGGGGGGGKLAALKAKLAALKAYC-NH2; thioether N-39), in data set [1] (4 °C (pre‐chilled medium), fluorescence imaging), the “cell membrane permeability, confocal laser microscopy, 4 °C” value is on record as “showed cell membrane permeability”. In addition, the “cell membrane permeability, confocal laser microscopy, 37 °C” value in data set [1] (5‐min incubation, 37 °C, 5% CO2, nuclei stained with Hoechst 33 342, fluorescence imaging) is recorded as “showed cell membrane permeability”.

On ERα/LBD (ERα302–552), `CC(C)C[C@@H]1NC(=O)[C@H](C)NC(=O)[C@H](C)NC(=O)[C@H](CC(C)C)NC(=O)[C@H](CCCCN)NC(=O)CNC(=O)CNC(=O)CNC(=O)CNC(=O)CNC(=O)CNC(=O)CNC(=O)[C@H](CCC(=O)O)NC(=O)[C@H](CC(C)C)NC(=O)[C@H](CCCNC(=N)N)NC(=O)[C@H](CCCNC(=N)N)NC(=O)[C@H](CC(C)C)NC(=O)[C@H](CCC(=O)O)NC(=O)[C@H](CCCNC(=N)N)NC(=O)[C@H](CCC(=O)O)NC(=O)[C@H](CC(C)C)NC(=O)[C@H](CCCNC(=N)N)NC(=O)[C@H](CCCNC(=N)N)NC(=O)[C@H](CC(C)C)NC(=O)[C@H](CCC(=O)O)NC(=O)[C@H](CCCNC(=N)N)NC(=O)[C@H](CSCC(=O)Nc2ccc3c(c2)C(=O)OC32c3ccc(N(C)C)cc3Oc3cc(N(C)C)ccc32)NC(=O)CNC(=O)CSC[C@@H](C(N)=O)NC(=O)[C@H](Cc2ccc(O)cc2)NC(=O)[C@H](C)NC(=O)[C@H](CCCCN)NC(=O)[C@H](CC(C)C)NC(=O)[C@H](CC(C)C)NC(=O)[C@H](CC(C)C)NC(=O)[C@H](CC(C)C)NC(=O)[C@H](CCCCN)NC(=O)[C@H](CC(C)C)NC(=O)[C@H](CCCCN)NC1=O` [TMR‐cHLH‐ERα] ({CH2CO}-GC(X1)RELRRLERELRRLEGGGGGGGKLAALKLKLLLLKAYC-NH2; thioether N-39) had a Kd of 0.285 µM. Regarding “CH3CO-C(FL)QLLTERHKILHRLLQEGSPSD-NH2 (Ac-C(fluorescein)QLLTERHKILHRLLQEGSPSD-NH2; not fully specified; printed as CH3CO-C(FL)QLLTERHKILHRLLQEGSPSD-NH2) [FL‐SRC1Box2, fluorescently labeled SRC1 box 2 peptide with the LXXLL motif, FP tracer, reference compound]”, in the data set with ERα/LBD (ERα302–552) (FP, 20 nM labeled peptide, in the presence of 17β‐estradiol, 20 mM Tris-HCl pH 8.0, 25 mM NaCl, 30 min, 20 °C, quadratic binding equation (Fig S5A), read-out: K D value, binding to ERα/LBD), the Kd amounted to 7.8 µM.

These data come from article PMC12247020, “A Cyclized Helix‐Loop‐Helix Peptide as a Molecular Scaffold for Cell‐Membrane Permeable Inhibitors for the Interaction Between Estrogen Receptor α and Coactivator SRC1” (Chembiochem, 2025).
